Data published in patent publication US20250326777A1, “COMPOUNDS, COMPOSITIONS AND METHODS THEREOF” (HEPAITECH (BEIJING) BIOPHARMA TECHNOLOGY CO., LTD., priority 2022, published 2025).

Molecular target: T1, human MRGPRX4 (Homo sapiens, UniProt Q96LA9)
T1 construct: expressed in transfected cells
Assay: MRGPRX4 antagonist calcium (FLIPR, Fluo-8) assay in HEK293T cells stably expressing human MRGPRX4, agonist 0.2 μM deoxycholic acid-3-phosphoric acid
Type: cell-based
Details: for IC50: antagonist mode, top conc. 30 μM, ten 3-fold serial dilutions, C may also mean <40% inhibition at 2 μM, read-out: Antagonist activity (IC50 class); for inhibition at 0.5 µM: single concentration 0.5 μM
Method: HEK293T cells stably expressing human MRGPRX4 were cultured in DMEM medium supplements with 10% FBS, 100 U/mL penicillin-streptomycin, 20 mM HEPES and 1 μg/mL puromycin at 37° C. with 5% (v/v) CO2. One day before test, the cells were detached using TrypLE™ Express and counted using cell counter. In a 384-well plate cells were seeded at a density of 20,000 cells/well in 20 uL/well planting medium (DMEM medium supplements with 5% FBS, 100 U/mL penicillin-streptomycin and 20 mM HEPES), and incubated overnight at 37° C. with 5% (v/v) CO2. On the day of experiments, the dye solution, prepared following the manufacture's instruction of the Screen Quest™ Fluo-8 No Wash Calcium Assay Kit, was added to each well (20 μL/well) of the cell plate. The cell plate was incubated at 25° C. for 1 hour. Test compounds in different doses were transferred to the cell plate by FLIPR and the plate was kept in the dark at 25° C. for 30 minutes. The agonist solution, 0.2 μM of deoxycholic acid-3-phosphoric acid in assay buffer, was added to each well of the plate. The plate was read for 160 sec with 1 sec interval to obtain data of antagonist mode in FLIPR. For various compounds, IC50 values were calculated by fitting % inhibition against log of compound concentrations (top conc. 30 μM, ten 3-fold serial dilutions) with Hill equation using XLfit. […] Those skilled in the art appreciate that IC50 of various compounds can be assessed in accordance with the present disclosure.

[1] = HEK293T cells stably expressing human MRGPRX4
[2] = HEK-293T, HEK293T cells stably expressing human MRGPRX4

T1 sequence (Q96LA9 whole entry): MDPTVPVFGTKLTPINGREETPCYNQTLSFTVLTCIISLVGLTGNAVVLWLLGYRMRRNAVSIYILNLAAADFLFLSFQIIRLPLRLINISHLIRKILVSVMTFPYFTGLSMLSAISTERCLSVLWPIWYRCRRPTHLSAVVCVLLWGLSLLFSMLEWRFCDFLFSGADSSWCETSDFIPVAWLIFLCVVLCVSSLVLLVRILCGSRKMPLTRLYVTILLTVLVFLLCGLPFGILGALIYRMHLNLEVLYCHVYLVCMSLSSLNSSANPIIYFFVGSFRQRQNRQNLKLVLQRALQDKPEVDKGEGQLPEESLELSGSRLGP

SMILES | IC50 [1] | other results
O=C(O)c1cccc([C@@H]2Cc3cc(C(F)(F)F)ccc3O2)c1F [Compound 52A] | < 1 µM | MRGPRX4 inhibition activity, comparison of enantiomers (S enantiomer 52A versus 52B, see Table 1): much higher MRGPRX4 inhibition activity than 52B
O=C(O)c1cccc([C@H]2Cc3cc(C(F)(F)F)ccc3O2)c1F [Compound 52B] | > 10 µM | –
Fc1c(-c2nnn[nH]2)cccc1[C@@H]1Cc2cc(C(F)(F)F)ccc2O1 [Compound 88] | < 1 µM | –
Fc1c(-c2nnn[nH]2)cccc1[C@H]1Cc2cc(C(F)(F)F)ccc2O1 [Compound 89] | – | inhibition at 2 µM (HEK-293T, single concentration 2 μM, HEK293T cells stably expressing human MRGPRX4): 61%
FC(F)(F)c1ccc2c(c1)CC(c1cc(-c3nnn[nH]3)cc(C3CC3)c1)O2 (centres unmarked) [Compound 90] | – | inhibition at 0.5 µM [2]: 27%
Fc1cc(-c2nnn[nH]2)cc(C2Cc3cc(C(F)(F)F)ccc3O2)c1 (centres unmarked) [Compound 91] | < 1 µM | –
Fc1c(-c2nnn[nH]2)cccc1C1Cc2c(ccc3ccccc23)O1 (centres unmarked) [Compound 92] | < 1 µM | –
FC(F)(F)c1ccc2c(c1)CC(c1cccc(-c3nnn[nH]3)c1)O2 (centres unmarked) [Compound 93] | – | inhibition at 0.5 µM [2]: 24%
Cc1cc(-c2nnn[nH]2)cc(C2Cc3cc(C(F)(F)F)ccc3O2)c1 (centres unmarked) [Compound 94] | < 1 µM | –
Cc1ccc2c(c1)CC(c1cccc(-c3nnn[nH]3)c1F)O2 (centres unmarked) [Compound 95] | – | inhibition at 0.5 µM [2]: 8.6%
Fc1c(-c2nnn[nH]2)cccc1C1Cc2cc(OC(F)(F)F)ccc2O1 (centres unmarked) [Compound 96] | – | inhibition at 0.5 µM [2]: 3.7%
Fc1ccc(C2Cc3c(ccc4ccccc34)O2)cc1-c1nnn[nH]1 (centres unmarked) [Compound 97] | < 1 µM | –
Fc1ccc(C2Cc3cc(C(F)(F)F)ccc3O2)cc1-c1nnn[nH]1 (centres unmarked) [Compound 98] | < 1 µM | –
Cc1cc(-c2nnn[nH]2)c(F)c(C2Cc3cc(C(F)(F)F)ccc3O2)c1 (centres unmarked) [Compound 99] | < 1 µM | –
N#Cc1cc(-c2nnn[nH]2)cc(C2Cc3cc(C(F)(F)F)ccc3O2)c1 (centres unmarked) [Compound 101] | < 1 µM | –
Fc1c(-c2nnn[nH]2)cccc1[C@@H]1Cc2c(ccc3ccccc23)O1 [Compound 102] | < 1 µM | –
Fc1ccc([C@@H]2Cc3c(ccc4ccccc34)O2)cc1-c1nnn[nH]1 [Compound 103] | < 1 µM | –
Fc1ccc([C@@H]2Cc3cc(C(F)(F)F)ccc3O2)cc1-c1nnn[nH]1 [Compound 104] | < 1 µM | –
O=c1[nH]c(-c2cccc([C@@H]3Cc4cc(C(F)(F)F)ccc4O3)c2F)no1 [Compound 105] | < 1 µM | –
Cn1c(-c2ccc(C(=O)O)cc2)cc2ccc(C(F)(F)F)cc21 [Example 1] | 1 to 10 µM | –
Cn1c(-c2ccc(F)c(C(=O)O)c2)cc2ccc(C(F)(F)F)cc21 [Example 2] | > 10 µM | –

SMILES | IC50 [1] | other results
O=C(O)c1ccc(-c2cc3ccc(C(F)(F)F)cc3[nH]2)cc1 [Example 3] | > 10 µM | –
Cn1c(-c2cccc(C(=O)O)c2)cc2ccc(C(F)(F)F)cc21 [Example 4] | > 10 µM | –
CC(C)n1c(-c2ccc(C(=O)O)cc2)cc2ccc(C(F)(F)F)cc21 [Example 5] | 1 to 10 µM | –
Cn1c(-c2ccc(C(=O)O)cc2)cc2ccc(C#N)cc21 [Example 6] | > 10 µM | –
Cn1c(-c2cccc(C(=O)O)c2)cc2ccc(C#N)cc21 [Example 7] | > 10 µM | –
Cn1c(-c2ccc(C(=O)O)cc2)cc2ccc(C(=O)O)cc21 [Example 9] | > 10 µM | –
COc1ccc2cc(-c3ccc(C(=O)O)cc3)n(C)c2c1 [Example 10] | > 10 µM | –
CC(C)n1c(-c2ccc(C(=O)O)cc2)cc2cc(Cl)c(Cl)cc21 [Example 11] | > 10 µM | –
Cn1c(-c2ccc(C(=O)O)cc2)cc2cc(Cl)c(Cl)cc21 [Example 12] | > 10 µM | –
Cn1c(-c2ccc(C(=O)O)cc2)cc2c(Cl)cc(C(F)(F)F)cc21 [Example 13] | 1 to 10 µM | –
Cn1c(-c2ccc(C(=O)O)cc2F)cc2ccc(C(F)(F)F)cc21 [Example 14] | 1 to 10 µM | –
Cn1c(-c2ccc(C(=O)O)cc2)cc2cc(C(F)(F)F)ccc21 [Example 15] | 1 to 10 µM | –
CCCn1c(-c2ccc(C(=O)O)cc2)cc2ccc(C(F)(F)F)cc21 [Example 16] | 1 to 10 µM | –
CC(C)Cn1c(-c2ccc(C(=O)O)cc2)cc2ccc(C(F)(F)F)cc21 [Example 17] | 1 to 10 µM | –
CCCn1c(-c2ccc(C(=O)O)cc2F)cc2ccc(C(F)(F)F)cc21 [Example 18] | < 1 µM | –
CCCn1c(-c2ccc(C(=O)O)c(F)c2)cc2ccc(C(F)(F)F)cc21 [Example 19] | 1 to 10 µM | –
CCCn1c(-c2ccc(C(=O)O)cc2)cc2ccc(F)cc21 [Example 20] | > 10 µM | –
CCCn1c(-c2ccc(C(=O)O)cc2)cc2ccc(OC(F)(F)F)cc21 [Example 21] | > 10 µM | –
Cn1c(-c2ccc(C(=O)O)cc2)cc2c(-c3ccccc3)cccc21 [Example 22] | > 10 µM | –
CCCn1c(-c2ccc(C(=O)O)cc2)cc2ccc(-c3ccccc3)cc21 [Example 23] | > 10 µM | –

Further lines, with some results ahead:

IC50 [1] | SMILES | other results
> 10 µM | CCCn1c(-c2ccc(C(=O)O)cc2)cc2ccc(S(C)(=O)=O)cc21 [Example 24] | –
> 10 µM | Cn1c(-c2ccc(C(=O)O)cc2)cc2cccc(-c3ccccc3)c21 [Example 25] | –
> 10 µM | O=C(O)c1ccc(-c2cc3ccc(C(F)(F)F)cc3n2Cc2ccccc2)cc1 [Example 26] | –
1 to 10 µM | O=C(O)c1ccc(-c2cc3ccc(C(F)(F)F)cc3n2C2CCCC2)cc1 [Example 27] | –
1 to 10 µM | O=C(O)c1ccc(-c2cc3ccc(C(F)(F)F)cc3n2C2CCC2)cc1 [Example 28] | –
1 to 10 µM | O=C(O)c1ccc(-c2cc3ccc(C(F)(F)F)cc3n2C2CCCCC2)cc1 [Example 29] | –
< 1 µM | O=C(O)c1ccc(-c2cc3ccc(C(F)(F)F)cc3n2C2CCCC2)c(F)c1 [Example 30] | –
1 to 10 µM | O=C(O)c1ccc(-c2cc3ccc(C(F)(F)F)cc3n2C2CCCC2)cc1F [Example 31] | –
> 10 µM | O=C(O)c1cccc(-c2cc3ccc(C(F)(F)F)cc3n2C2CCCC2)c1F [Example 32] | –
> 10 µM | CC(C)n1c(-c2ccc(C(=O)O)cc2)cc2c(Cl)cc(C(F)(F)F)cc21 [Example 33] | –
1 to 10 µM | O=C(O)c1ccc(-c2cc3ccc(C(F)(F)F)cc3n2-c2ccccc2)cc1 [Example 34] | –
> 10 µM | O=C(O)c1ccc(-c2cc3ccc(C(F)(F)F)cc3n2-c2ccccc2)cc1F [Example 35] | –
> 10 µM | O=C(O)c1ccc(-c2cc3ccc(C(F)(F)F)cc3n2-c2ccccc2)c(F)c1 [Example 36] | –
> 10 µM | Cn1c(-c2ccc(C(=O)O)cc2)c(F)c2ccc(C(F)(F)F)cc21 [Example 37] | –
> 10 µM | O=C(O)c1ccc(-c2[nH]c3cc(C(F)(F)F)ccc3c2F)cc1 [Example 38] | –
> 10 µM | Cc1c(-c2ccc(C(=O)O)cc2)n(C)c2cc(C(F)(F)F)ccc12 [Example 39] | –
> 10 µM | CN1c2cc(C(F)(F)F)ccc2CC1c1ccc(C(=O)O)cc1 (centres unmarked) [Example 40] | –
> 10 µM | O=C(O)c1ccc(C2Cc3ccc(C(F)(F)F)cc3N2)cc1 (centres unmarked) [Example 41] | –
> 10 µM | O=C(O)c1cc(-c2nc3cc(C(F)(F)F)c(Cl)cc3o2)ccc1F [Example 42] | –
> 10 µM | O=C(O)c1cccc(-c2nc3cc(C(F)(F)F)cc(Cl)c3o2)c1 [Example 43] | –
> 10 µM | O=C(O)c1ccc(-c2nc3c(C(F)(F)F)c(F)ccc3o2)cc1F [Example 44] | –
> 10 µM | O=C(O)c1cc(-c2nc3c(C(F)(F)F)c(Cl)ccc3o2)ccc1F [Example 45] | –
> 10 µM | O=C(O)c1cc(F)cc(-c2nc3cc(C(F)(F)F)c(Cl)cc3o2)c1 [Example 46] | –
